No end group written: not given here.
What was measured:
[1] = target: IGF-1R (Homo sapiens, UniProt P08069); assay: Phage ELISA, binding of phage clones to IGF-1R (ratio over background); details: ratio of IGF-1R divided by ratio of IR
Experimental: (§1) HIT indicates binder; CAND indicates binder candidate; LDH indicates binding to lactate dehydrogenase (negative control); Sp/Irr indicates the ratio of specific binding over non-specific binding.
(§2) Sp/Irr=the ratio of specific binding over non-specific binding; LDH=lactate dehydrogenase (negative control).
(§3) For phage pools, cells from frozen stocks were grown and phage were prepared as described above. For analysis of individual clones, colonies were picked and phage prepared as described above. Subsequent steps were the same for pooled and clonal phage. Microtiter wells were coated and blocked as described above. […] Phage resuspended in MPBS (PBS containing 2% non-fat milk) were added to wells (100 μl/well) and incubated at room temperature for 1 h. The phage solution was then removed, and the wells were washed three times with PBS at room temperature.
(§4) Anti-M13 antibody conjugated to horseradish peroxidase (Pharmacia Biotech) was diluted 1:3000 in MPBS and added to each well (100 μl/well). Incubation was for another hour at room temperature, followed by PBS washes as described. Color was developed by addition of ABTS solution (100 μl/well; Boehringer). […] Data points were averaged after subtraction of appropriate blanks. A clone was considered “positive” if the A405 of the well was ≧2-fold over background.

[2] = target: IR (Homo sapiens, UniProt P06213); assay: Phage ELISA, binding of phage clones to IR (ratio over background); details: ratio of IR divided by ratio of IGF-1R
Experimental: as §1, §2, §3, §4

Substance	Comparisons IGF-1R/IR [1]	Comparisons IR/IGF-1R [2]
AETSAQVGWQRLWSVWPGDHWSTLDPFYHKLSELLRESGA [Peptide B6L-3-G5-IR]	1.4	0.7
AETSVQVGWIRLQSVWPGEHWNTVDPFYHKLSELLRGSGA [Peptide B6L-4-D7-IR]	3.4	0.3
AGSVTSFYDAMEQLVATGTSA [20E2A-3-A4-IGFR]	1.4	0.7
AGTPAQVG*NRLWSVWPGEHWNTVDPFYNKLSELLRESGA (AGTPAQVGXNRLWSVWPGEHWNTVDPFYNKLSELLRESGA; not fully specified; X: residue not identified in the source; ends and bridges not checked) [Peptide B6L-4-A7-IR]	1.8	0.6
AICDAGFHEHFYDWFALQVSDCGRQS [H2CA-2-B11-IGFR]	3.0	0.3
APDPSDFQEIFYDWFVRQVSRMPGGG [H2CA-1-A3-IGFR]	5.1	0.2
AQPCGGFYGLLEQLVGRSVCD [20E2B-4-F10-IGFR]	7.8	0.1
ASSASGFYELLQRLAGLGLEV [20E2B-3-C4-IGFR]	6.2	–
AVRATRFDEAFYDWFVRQISDGQGNK [H2CA-4-F6-IGFR]	6.4	0.2
CCTTEMVVMDARDDPFYHKLSELVTGG [Peptide B6Hα-1-B5-IR]	20.5	0.0
CGAKMTGTPNDPFYHKLSELLQRG [Peptide B6Hα-3-E6-IR]	1.9	0.5
CMM.DGFYAGLGCLLTAGEGR (CMMXDGFYAGLGCLLTAGEGR; not fully specified; printed as CMM.DGFYAGLGCLLTAGEGR; X: residue not identified in the source; cysteine pairing not given here) [20E2B-3-C11-IGFR]	7.5	0.1
CSMAAVAEAGDDDDPFYHKLSELCQGS [Peptide B6Hα-3-F1-IR]	1.8	0.5
DRAFYNGLRDLVGAVYGAWD [R20α-4-20C11-IR]	10.3	0.1
DRDFCRFYERLTALVGGQVDGGWPC [20C-3-F6-IGFR]	14.1	0.1
DSVGDNFYQLLESLVGGHGVG [20E2B-3-D6-IGFR]	6.9	0.1
EAASLGSQDRNFYDWFVRQVV [Peptide A6S-2-D11-IR]	2.8	0.4
EGSGFYGYFFSLLGLQG [NNRPγ-4-A9-IR]	7.1	0.1
FFYDCLAALLQGVARYHDLCAVEIT [20C-4-C7-IGFR]	21.8	<0.1
FFYRCLSRLLGGQLGSRLGLSCIGD [20C-3-E4-IGFR]	6.0	0.2

Substance	Comparisons IGF-1R/IR [1]	Comparisons IR/IGF-1R [2]
FRTLAAQHDSFYDWFDRQVSGAAGER [H2CA-3-C11-IGFR]	2.1	0.5
FYDAIDQLVRGSARAGGTRD [R20α-3-20E2-IR]	12.9	0.1
FYVQQWGHENFYDWFDRQVSQSGGAG [H2CA-4-F1-IGFR]	3.8	0.3
GAPVDQLHEDFYDWFVRQVSQAATG [H2CA-2-B2-IGFR]	3.5	0.3
GCAVVEEAERSRGDPFYHKLSELIQGC [Peptide B6Hα-3-E7-IR]	4.3	0.2
GCEVIVEEGDSADPFYHKLSELCQGS [Peptide B6Hα-2-D1-IR]	4.2	0.2
GCITAENGAGDPFYHKLSELGGCS [Peptide B6Hα-1-B3-IR]	2.9	0.3
GCVVEWQKWHGASDPFYHKLSELGGCS [B6Hα-3-F10-IR]	4.6	0.2
GFREGNFYEWFQAQVT [Peptide E4Dα-4-H2-IR]	4.1	0.2
GFREGSFYDWFQAQVT [E4Dα-2-D11-IR]	3.4	0.3
GGTEVDFYRALERLVRGQLGL [20E2B-3-D8-IGFR]	11.3	0.1
GGTKAVAKVGTRDDPFYHKLSELLQGS [Peptide B6Hα-4-G8-IR]	3.6	0.3
GHYFGSFYDAIDQLVAGMLPG [20E2A-3-A3-IGFR]	1.9	0.5
GIISQSCPESFYDWFAGQVSDPWWCW [H2CA-4-G9-IGFR]	16.0	0.1
GLDHSDAVGVHLGFAWPAQARGRWEAGGLEDTWAGYDWL [40F-4-B1-IGFR]	13.1	0.1
GNGDGMFYQLLSLLVGRDMHV [20E2B-3-C2-IGFR]	13.8	0.1
GRTMAVMAAGGPDDPFYHKLSELVQGG [Peptide B6Hα-2-D6-IR]	4.4	0.2
GVRAMSFYDALVSVLGLGPSG [20E2B-1-A6-IGFR]	16.8	0.1
HLADGQFHEKFYDWFERQISSRCNDC [H2CA-3-E11-IGFR]	2.2	0.5
ICTGQGFYQVLCGLLRGTSAR [20E2B-2-B3-IGFR]	7.4	0.1

Substance	Comparisons IGF-1R/IR [1]	Comparisons IR/IGF-1R [2]
IIGGFYSYFNSVLRLGT [NNRPγ-4-A1-IR]	6.0	0.2
IQQELTFYDLLHRLVRSELGS [20E2B-3-D2-IGFR]	11.7	0.1
KLHNLMFYYGLQRLVWGAGLG [20E2B-4-H3-IGFR]	13.9	0.1
LGVTDGFYAALGYLIHGVGQF [20E2B-3-D11-IGFR]	7.6	0.1
LGYQEPFQQNFYDWFVRQVSGAENAG [H2CA-3-E8-IGFR]	2.9	0.3
LKDGFYDYFWQRLHLGS [NNRPγ-4-B11-IR]	15.5	0.1
LRIANLFYQRLWDLAFGGGG [20E2B-3-E8-IFGR]	11.1	0.1
LRRQAPVEENFYDWFVRQVSGDRVGG [H2CA-3-D7-IGFR]	3.7	0.3
LSCLAYSRHGIWRPSTDLGLGRSVGEGSVSTRWRGYDWFE [40F-4-D1-IGFR]	13.1	0.1
LSSDGQFYRALNLLLQGSAGR [20E2B-2-B7-IGFR]	6.7	0.1
LSVALSFYDALGQLVAGEGRW [20E2A-3-A12-IGFR]	3.9	0.3
MMVVDGFYDALHQLVVAQSLG [20E2A-3-D10-IGFR]	3.9	0.3
MNVFVSFYDAIDQLVCQRIGC [20E2A-4-G11-IGFR]	2.6	0.4
NSRDGGFYLQLERLLGFPVTG [20E2B-3-D4-IGFR]	9.6	0.1
NYRRQVFNGNFYDWFDRQVFSLVTPG [H2CA-3-D8-IGFR]	4.0	0.3
PAGPCGFYCGLGLLLHGDQSP [20E2B-4-H8-IGFR]	5.9	0.2
PDLHKGFYAQLAQLIRGQLLS [20E2B-3-E3-IGFR]	13.1	0.1
PGTDLGFYQALRCVVIQGACD [20E2B-2-B2-IGFR]	8.1	0.1
PPLASDLDVQFYGWFVQQVSPPGRGG [H2CA-2-B3-IGFR]	3.6	0.3
RGCNDDGGKGWSDDPFYHKLSELICGG [Peptide B6Hα-1-A2-IR]	14.6	–

— US20070004634A1 (Novo Nordisk A/S, priority 1998, published 2007)
